# According to ChEMBL document CHEMBL5214910, “Rational Design of Dipicolylamine-Containing Carbazole Amphiphiles Combined with Zn2+ as Potent Broad-Spectrum Antibacterial Agents with a Membrane-Disruptive Mechanism” (J Med Chem, 2021):
# How the values were obtained:
# [1] = test system: Staphylococcus aureus; experiment: Antibacterial activity against Staphylococcus aureus ATCC 29213 assessed as inhibition of bacterial growth incubated for 24 hrs by Muller hinton broth based dilution assay; type: functional
# [2] = test system: Pseudomonas aeruginosa; experiment: Antibacterial activity Pseudomonas aeruginosa ATCC 9027 assessed as inhibition of bacterial growth incubated for 24 hrs by Muller hinton broth based dilution assay; type: functional
# [3] = test system: Acinetobacter baumannii; experiment: Antibacterial activity against Acinetobacter baumannii ATCC 17978 assessed as inhIbition of bacterial growth incubated for 24 hrs by Muller hinton broth based dilution assay; type: functional
# [4] = test system: Staphylococcus aureus; experiment: Antibacterial activity against Methicillin-resistant Staphylococcus aureus N315 assessed as inhibition of bacterial growth incubated for 24 hrs by Muller hinton broth based dilution assay; type: functional
# [5] = test system: Escherichia coli; experiment: Antibacterial activity Escherichia coli ATCC 25922 assessed as inhibition of bacterial growth incubated for 24 hrs by Muller hinton broth based dilution assay; type: functional
# [6] = test system: Staphylococcus aureus; experiment: Antibacterial activity against Methicillin-resistant Staphylococcus aureus NCTC10442 assessed as inhibition of bacterial growth incubated for 24 hrs by Muller hinton broth based dilution assay; type: functional
# [7] = test system: Acinetobacter baumannii; experiment: Antibacterial activity against Acinetobacter baumannii R2889 assessed as inhIbition of bacterial growth incubated for 24 hrs by Muller hinton broth based dilution assay; type: functional
# [8] = test system: Staphylococcus aureus; experiment: Antibacterial activity against Methicillin-resistant Staphylococcus aureus NCTC10442 assessed as inhibition of bacterial growth incubated for 24 hrs in the presence of 12.5 ug/mL Zn2+ by Muller hinton broth based dilution assay; type: functional
# [9] = test system: Pseudomonas aeruginosa; experiment: Antibacterial activity Pseudomonas aeruginosa ATCC 9027 assessed as inhibition of bacterial growth incubated for 24 hrs in the presence of 12.5 ug/mL Zn2+ by Muller hinton broth based dilution assay; type: functional
# [10] = test system: Acinetobacter baumannii; experiment: Antibacterial activity against Acinetobacter baumannii R2889 assessed as inhIbition of bacterial growth incubated for 24 hrs in the presence of 12.5 ug/mL Zn2+ by Muller hinton broth based dilution assay; type: functional
# [11] = test system: Staphylococcus aureus; experiment: Antibacterial activity against Methicillin-resistant Staphylococcus aureus N315 assessed as inhibition of bacterial growth incubated for 24 hrs in the presence of 12.5 ug/mL Zn2+ by Muller hinton broth based dilution assay; type: functional
# [12] = test system: Acinetobacter baumannii; experiment: Antibacterial activity against Acinetobacter baumannii ATCC 17978 assessed as inhIbition of bacterial growth incubated for 24 hrs in the presence of 12.5 ug/mL Zn2+ by Muller hinton broth based dilution assay; type: functional
# [13] = test system: Escherichia coli; experiment: Antibacterial activity Escherichia coli ATCC 25922 assessed as inhibition of bacterial growth incubated for 24 hrs in the presence of 12.5 ug/mL Zn2+ by Muller hinton broth based dilution assay; type: functional
# [14] = test system: Staphylococcus aureus; experiment: Antibacterial activity against Staphylococcus aureus ATCC 29213 assessed as inhibition of bacterial growth incubated for 24 hrs in the presence of 12.5 ug/mL Zn2+ by Muller hinton broth based dilution assay; type: functional
# [15] = Hemolytic activity in rabbit RBC incubated for 1 hrs in the presence of 12.5 ug/mL Zn2+ by fluorescence based microplate reader assay; type: toxicity, cell-based, Oryctolagus cuniculus, Erythrocyte; conditions: rabbit red blood cells (erythrocytes)
# [16] = Hemolytic activity in rabbit RBC incubated for 1 hrs by fluorescence based microplate reader assay; type: toxicity, cell-based, Oryctolagus cuniculus, Erythrocyte; conditions: rabbit red blood cells (erythrocytes)
# [17] = test system: Staphylococcus aureus; experiment: Induction of drug resistance in Staphylococcus aureus ATCC 29213 assessed as fold change in MIC incubated for 17 days; type: functional; conditions: time 17.0 day
# [18] = test system: Pseudomonas aeruginosa; experiment: Antibacterial activity against Pseudomonas aeruginosa ATCC 9027 in C57BL/6 mouse model of bacterial keratitis assessed as log reduction in viable bacterial count in infected cornea at 0.3 % pre-infected with bacteria for 24 hrs followed by topical administration of compound four times a day for 3 days; type: functional; conditions: route top, time 3 day
# [19] = test system: Escherichia coli; experiment: Induction of drug resistance in Escherichia coli ATCC 25922 assessed as fold change in MIC incubated for 15 days; type: functional; conditions: time 15.0 day
# [20] = test system: Staphylococcus aureus; experiment: Antibacterial activity against Staphylococcus aureus ATCC 29213 in cyclophosphamide immunosuppressed C57BL/6 mouse model of bacterial keratitis assessed as log reduction in viable bacterial count in infected cornea at 5 % pre-infected with bacteria for 24 hrs followed by topical administration of compound four times a day for 3 days; type: functional; conditions: route top, time 3 day
SMILES,MIC [1],MIC [2],MIC [3],MIC [4],MIC [5],MIC [6],MIC [7],MIC [8],MIC [9],MIC [10],MIC [11],MIC [12],MIC [13],MIC [14],HC50 at 1 h [15],HC50 at 1 h [16],fold change (FC) [17],log(activity) [18],fold change (FC) [19],log(activity) [20]
FC(F)(F)CCCn1c2ccccc2c2c(OCC3CO3)cccc21 (stereo unspecified),> 50 µg/mL,> 50 µg/mL,> 50 µg/mL,> 50 µg/mL,> 50 µg/mL,> 50 µg/mL,> 50 µg/mL,–,–,–,–,–,–,–,–,–,–,–,–,–
O=C(O)c1cn(C2CC2)c2cc(N3CCNCC3)c(F)cc2c1=O [CIPROFLOXACIN],0.39 µg/mL,0.195 µg/mL,0.39 µg/mL,0.39 µg/mL,0.049 µg/mL,0.39 µg/mL,0.78 µg/mL,0.39 µg/mL,0.195 µg/mL,0.78 µg/mL,0.39 µg/mL,0.39 µg/mL,0.049 µg/mL,0.39 µg/mL,–,–,–,–,–,–
CCCn1c2ccccc2c2c(OCC(O)CN(Cc3ccccn3)Cc3ccccn3)cccc21 (stereo unspecified),3.12 µg/mL,> 50 µg/mL,6.25 µg/mL,1.56 µg/mL,12.5 µg/mL,3.12 µg/mL,6.25 µg/mL,1.56 µg/mL,6.25 µg/mL,6.25 µg/mL,0.78 µg/mL,3.12 µg/mL,6.25 µg/mL,0.78 µg/mL,> 200 µg/mL,> 200 µg/mL,–,–,–,–
CC(C)=CCn1c2ccccc2c2c(OCC(O)CN(C)C)cccc21 (stereo unspecified),6.25 µg/mL,> 50 µg/mL,12.5 µg/mL,6.25 µg/mL,25 µg/mL,6.25 µg/mL,12.5 µg/mL,6.25 µg/mL,> 50 µg/mL,12.5 µg/mL,6.25 µg/mL,12.5 µg/mL,25 µg/mL,6.25 µg/mL,–,–,–,–,–,–
OC(COc1cccc2c1c1ccccc1n2CCCC(F)(F)F)CN(Cc1ccccn1)Cc1ccccn1 (stereo unspecified),3.12 µg/mL,> 50 µg/mL,6.25 µg/mL,3.12 µg/mL,12.5 µg/mL,1.56 µg/mL,6.25 µg/mL,0.78 µg/mL,12.5 µg/mL,3.12 µg/mL,1.56 µg/mL,3.12 µg/mL,3.12 µg/mL,1.56 µg/mL,> 200 µg/mL,> 200 µg/mL,–,–,–,–
CCCCCn1c2ccccc2c2c(OCC3CO3)cccc21 (stereo unspecified),> 50 µg/mL,> 50 µg/mL,> 50 µg/mL,> 50 µg/mL,> 50 µg/mL,> 50 µg/mL,> 50 µg/mL,–,–,–,–,–,–,–,–,> 200 µg/mL,–,–,–,–
CCCCCCCCCn1c2ccccc2c2c(OCC3CO3)cccc21 (stereo unspecified),> 50 µg/mL,> 50 µg/mL,> 50 µg/mL,> 50 µg/mL,> 50 µg/mL,> 50 µg/mL,> 50 µg/mL,–,–,–,–,–,–,–,–,> 200 µg/mL,–,–,–,–
CC(C)=CCn1c2ccccc2c2c(OCC(O)CNCc3ccccn3)cccc21 (stereo unspecified),6.25 µg/mL,> 50 µg/mL,> 50 µg/mL,6.25 µg/mL,50 µg/mL,6.25 µg/mL,> 50 µg/mL,6.25 µg/mL,> 50 µg/mL,> 50 µg/mL,3.12 µg/mL,> 50 µg/mL,> 50 µg/mL,3.12 µg/mL,> 200 µg/mL,> 200 µg/mL,–,–,–,–
CCCn1c2ccccc2c2c(OCC3CO3)cccc21 (stereo unspecified),> 50 µg/mL,> 50 µg/mL,> 50 µg/mL,> 50 µg/mL,> 50 µg/mL,> 50 µg/mL,> 50 µg/mL,–,–,–,–,–,–,–,–,> 200 µg/mL,–,–,–,–
CCCCCCCn1c2ccccc2c2c(OCC3CO3)cccc21 (stereo unspecified),> 50 µg/mL,> 50 µg/mL,> 50 µg/mL,> 50 µg/mL,> 50 µg/mL,> 50 µg/mL,> 50 µg/mL,–,–,–,–,–,–,–,–,> 200 µg/mL,–,–,–,–
Cn1c2ccccc2c2c(OCC3CO3)cccc21 (stereo unspecified),> 50 µg/mL,> 50 µg/mL,> 50 µg/mL,> 50 µg/mL,> 50 µg/mL,> 50 µg/mL,> 50 µg/mL,–,–,–,–,–,–,–,–,> 200 µg/mL,–,–,–,–
CCCCCCCn1c2ccccc2c2c(OCC(O)CN(Cc3ccccn3)Cc3ccccn3)cccc21 (stereo unspecified),1.56 µg/mL,> 50 µg/mL,> 50 µg/mL,1.56 µg/mL,> 50 µg/mL,1.56 µg/mL,25 µg/mL,1.56 µg/mL,> 50 µg/mL,25 µg/mL,0.78 µg/mL,> 50 µg/mL,3.12 µg/mL,1.56 µg/mL,> 200 µg/mL,> 200 µg/mL,–,–,–,–
OC(COc1cccc2[nH]c3ccccc3c12)CN(Cc1ccccn1)Cc1ccccn1 (stereo unspecified),25 µg/mL,> 50 µg/mL,50 µg/mL,25 µg/mL,> 50 µg/mL,25 µg/mL,> 50 µg/mL,12.5 µg/mL,12.5 µg/mL,> 50 µg/mL,6.25 µg/mL,50 µg/mL,> 50 µg/mL,6.25 µg/mL,> 200 µg/mL,> 200 µg/mL,–,–,–,–
CCCCCCCCCn1c2ccccc2c2c(OCC(O)CN(Cc3ccccn3)Cc3ccccn3)cccc21 (stereo unspecified),3.12 µg/mL,> 50 µg/mL,> 50 µg/mL,0.78 µg/mL,> 50 µg/mL,6.25 µg/mL,> 50 µg/mL,6.25 µg/mL,> 50 µg/mL,> 50 µg/mL,0.78 µg/mL,12.5 µg/mL,> 50 µg/mL,3.12 µg/mL,> 200 µg/mL,> 200 µg/mL,–,–,–,–
CCn1cc(C(=O)O)c(=O)c2cc(F)c(N3CCNCC3)cc21,–,–,–,–,–,–,–,–,–,–,–,–,–,–,–,–,32,–,–,–
Cn1c2ccccc2c2c(OCC(O)CN(Cc3ccccn3)Cc3ccccn3)cccc21 (stereo unspecified),12.5 µg/mL,> 50 µg/mL,12.5 µg/mL,6.25 µg/mL,50 µg/mL,12.5 µg/mL,25 µg/mL,6.25 µg/mL,12.5 µg/mL,25 µg/mL,1.56 µg/mL,12.5 µg/mL,50 µg/mL,3.12 µg/mL,> 200 µg/mL,> 200 µg/mL,–,–,–,–
CCN(CC)CC(O)COc1cccc2c1c1ccccc1n2CC=C(C)C (stereo unspecified),6.25 µg/mL,> 50 µg/mL,50 µg/mL,6.25 µg/mL,> 50 µg/mL,6.25 µg/mL,25 µg/mL,6.25 µg/mL,> 50 µg/mL,25 µg/mL,6.25 µg/mL,50 µg/mL,50 µg/mL,6.25 µg/mL,–,–,–,–,–,–
CC(C)=CCn1c2ccccc2c2c(OCC3CO3)cccc21 (stereo unspecified),> 50 µg/mL,> 50 µg/mL,> 50 µg/mL,> 50 µg/mL,> 50 µg/mL,> 50 µg/mL,> 50 µg/mL,–,–,–,–,–,–,–,–,> 200 µg/mL,–,–,–,–
c1ccc2c(c1)[nH]c1cccc(OCC3CO3)c12 (stereo unspecified),> 50 µg/mL,> 50 µg/mL,> 50 µg/mL,> 50 µg/mL,> 50 µg/mL,> 50 µg/mL,> 50 µg/mL,–,–,–,–,–,–,–,–,> 200 µg/mL,–,–,–,–
COc1c(N2CCNC(C)C2)c(F)cc2c(=O)c(C(=O)O)cn(C3CC3)c12 (stereo unspecified) [GATIFLOXACIN],–,–,–,–,–,–,–,–,–,–,–,–,–,–,–,–,–,3.03,–,–
CC1(C)S[C@@H]2[C@H](NC(=O)[C@H](N)c3ccc(O)cc3)C(=O)N2[C@H]1C(=O)O,–,–,–,–,–,–,–,–,–,–,–,–,–,–,–,–,–,–,16,–
CCCCCn1c2ccccc2c2c(OCC(O)CN(Cc3ccccn3)Cc3ccccn3)cccc21 (stereo unspecified),1.56 µg/mL,> 50 µg/mL,3.12 µg/mL,1.56 µg/mL,6.25 µg/mL,1.56 µg/mL,3.12 µg/mL,0.78 µg/mL,6.25 µg/mL,3.12 µg/mL,0.78 µg/mL,3.12 µg/mL,1.56 µg/mL,1.56 µg/mL,> 200 µg/mL,> 200 µg/mL,–,–,–,–
CN[C@H](CC(C)C)C(=O)N[C@H]1C(=O)N[C@@H](CC(N)=O)C(=O)N[C@H]2C(=O)N[C@H]3C(=O)N[C@H](C(=O)N[C@H](C(=O)O)c4cc(O)cc(O)c4-c4cc3ccc4O)[C@H](O)c3ccc(c(Cl)c3)Oc3cc2cc(c3O[C@@H]2O[C@H](CO)[C@@H](O)[C@H](O)[C@H]2O[C@H]2C[C@](C)(N)[C@H](O)[C@H](C)O2)Oc2ccc(cc2Cl)[C@H]1O [VANCOMYCIN],0.78 µg/mL,> 50 µg/mL,50 µg/mL,1.56 µg/mL,> 50 µg/mL,1.56 µg/mL,> 50 µg/mL,1.56 µg/mL,> 50 µg/mL,> 50 µg/mL,1.56 µg/mL,50 µg/mL,> 50 µg/mL,0.78 µg/mL,–,–,–,–,–,5.4
